Measurements published in ChEMBL document CHEMBL1154930, “N1-Heterocyclic pyrimidinediones as non-nucleoside inhibitors of HIV-1 reverse transcriptase” (Bioorg Med Chem Lett, 2010).

How the values were obtained:
[1] = Half life in Beagle dog at 0.5 mg/kg, iv or 0.5 mg/kg, po; assay type: ADME, organism-based, Canis lupus familiaris; settings: in vivo
[2] = Oral bioavailability in Beagle dog at 4 mg/kg, po; assay type: ADME, organism-based, Canis lupus familiaris; settings: in vivo
[3] = test system: Human immunodeficiency virus 1; test: Antiviral activity against NNRTI-resistant HIV1 harboring reverse transcriptase K103N mutant infected in human MT2 cells; assay type: functional, organism-based; settings: Human immunodeficiency virus 1, MT2
[4] = Half life in human microsomes; assay type: ADME, Microsome
Albumin = Albumin (Homo sapiens, UniProt P02768); test: Binding affinity to human serum albumin; assay type: ADME; settings: read-out: PB (converted)
[5] = test system: Human immunodeficiency virus 1; test: Antiviral activity against HIV1 harboring reverse transcriptase Y181C mutant infected in human MT2 cells; assay type: functional, organism-based; settings: Human immunodeficiency virus 1, MT2
[6] = Volume of distribution at steady state in Beagle dog at 0.5 mg/kg, iv or 0.5 mg/kg, po; assay type: ADME, organism-based, Canis lupus familiaris; settings: in vivo, read-out: Vdss
[7] = test system: Human immunodeficiency virus 1; test: Antiviral activity against wild type HIV1 infected in human MT2 cells; assay type: functional, organism-based; settings: Human immunodeficiency virus 1, MT2
[8] = Oral bioavailability in Beagle dog at 0.5 mg/kg, po; assay type: ADME, organism-based, Canis lupus familiaris; settings: in vivo
[9] = Half life in dog microsomes; assay type: ADME, Canis lupus familiaris, Microsome
[10] = Oral bioavailability in Beagle dog at 2 mg/kg, po; assay type: ADME, organism-based, Canis lupus familiaris; settings: in vivo

Albumin, sequence (P02768 whole entry): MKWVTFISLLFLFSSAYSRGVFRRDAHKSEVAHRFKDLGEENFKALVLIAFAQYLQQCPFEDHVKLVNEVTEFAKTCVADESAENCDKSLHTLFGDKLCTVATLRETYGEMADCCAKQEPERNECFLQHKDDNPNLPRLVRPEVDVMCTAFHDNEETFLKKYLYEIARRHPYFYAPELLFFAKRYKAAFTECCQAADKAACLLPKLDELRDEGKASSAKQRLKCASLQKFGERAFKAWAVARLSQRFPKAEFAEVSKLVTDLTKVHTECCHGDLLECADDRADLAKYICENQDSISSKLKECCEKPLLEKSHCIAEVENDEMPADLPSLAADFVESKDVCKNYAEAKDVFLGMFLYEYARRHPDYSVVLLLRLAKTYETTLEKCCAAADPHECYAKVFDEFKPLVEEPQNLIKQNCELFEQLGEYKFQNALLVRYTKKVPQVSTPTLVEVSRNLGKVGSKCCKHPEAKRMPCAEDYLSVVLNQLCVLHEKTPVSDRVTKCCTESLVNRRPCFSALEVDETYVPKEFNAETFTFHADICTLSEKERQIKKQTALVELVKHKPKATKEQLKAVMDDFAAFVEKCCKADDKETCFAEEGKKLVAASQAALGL

Cc1cc(C#N)cc(C(=O)c2c(C(C)C)c(=O)[nH]c(=O)n2Cc2cc(N)nc(F)c2)c1
half-life [1]: 198 min
bioavailability [2]: 96%
EC50 [3]: 1.6 nM
half-life [4]: 45 min
fraction unbound (Albumin): 0.064
EC50 [5]: 6.7 nM
Vd [6]: 1.8 L/kg
EC50 [7]: 3.4 nM

Cc1cc(C#N)cc(C(=O)c2c(C(C)C)c(=O)[nH]c(=O)n2Cc2cc(N)nc(F)c2F)c1
EC50 [3]: 7.3 nM
half-life [4]: 51 min
fraction unbound (Albumin): 0.067
EC50 [5]: 8.2 nM
EC50 [7]: 4.5 nM

Cc1cc(C#N)cc(C(=O)c2c(C(C)C)c(=O)[nH]c(=O)n2Cc2cc(F)nc(F)c2)c1
half-life [1]: 294 min
bioavailability [8]: 41.5%
EC50 [3]: 1.9 nM
t1/2 [9]: Stable
t1/2 [4]: Stable
fraction unbound (Albumin): 0.058
EC50 [5]: 12 nM
Vd [6]: 1.94 L/kg
EC50 [7]: 12.4 nM

Cc1cc(C#N)cc(C(=O)c2c(C(C)C)c(=O)[nH]c(=O)n2Cc2ccnc(F)c2)c1
half-life [1]: 282 min
EC50 [3]: 2.4 nM
half-life [4]: 281 min
fraction unbound (Albumin): 0.123
EC50 [5]: 16 nM
Vd [6]: 1.61 L/kg
bioavailability [10]: 80%
EC50 [7]: 6.2 nM

O=C1Nc2ccc(Cl)cc2[C@@](C#CC2CC2)(C(F)(F)F)O1 [EFAVIRENZ]
EC50 [3]: 35 nM
half-life [4]: 98 min
EC50 [5]: 2.6 nM

Cc1cc(C#N)cc(C)c1Oc1nc(Nc2ccc(C#N)cc2)nc(N)c1Br [ETRAVIRINE]
EC50 [3]: 0.9 nM
half-life [4]: 140 min
EC50 [5]: 2.6 nM
EC50 [7]: 1.6 nM
